Laboratory results published in patent US20050113292A1 (priority 2003, published 2005).

## CC[C@H](C)[C@H](NC(=O)[C@H](CC(C)C)NC(=O)[C@H](CO)NC(=O)[C@H](Cc1c[nH]cn1)NC(=O)[C@@H](NC(=O)[C@H](CC(C)C)NC(=O)[C@H](CO)NC(=O)[C@@H](NC(=O)[C@H](Cc1ccc(O)cc1)NC(=O)[C@H](CC(N)=O)NC(=O)[C@H](CC(N)=O)NC(=O)[C@@H](NC(=O)[C@H](CCC(=O)O)NC(=O)[C@H](CCCNC(=N)N)NC(=O)[C@H](CC(=O)O)NC(=O)[C@H](Cc1c[nH]c2ccccc12)NC(=O)[C@H](CCC(=O)O)NC(=O)[C@H](CCSC)NC(=O)[C@H](Cc1c[nH]c2ccccc12)NC(=O)[C@@H]1CSC(C(=O)N[C@@H](CCCCNC(=O)CCCCCNC(=O)CCCCCNC(=O)[C@H](CCCCNC(=O)CCCCCNC(=O)CCCCCNC(=O)CCCCCNC(=O)[C@H](CCCCN)NC(=O)C2N[C@H](C(=O)N[C@@H](Cc3c[nH]c4ccccc34)C(=O)N[C@@H](CCSC)C(=O)N[C@@H](CCC(=O)O)C(=O)N[C@@H](Cc3c[nH]c4ccccc34)C(=O)N[C@@H](CC(=O)O)C(=O)N[C@@H](CCCNC(=N)N)C(=O)N[C@@H](CCC(=O)O)C(=O)N[C@H](C(=O)N[C@@H](CC(N)=O)C(=O)N[C@@H](CC(N)=O)C(=O)N[C@@H](Cc3ccc(O)cc3)C(=O)N[C@H](C(=O)N[C@@H](CO)C(=O)N[C@@H](CC(C)C)C(=O)N[C@H](C(=O)N[C@@H](Cc3c[nH]cn3)C(=O)N[C@@H](CO)C(=O)N[C@@H](CC(C)C)C(=O)N[C@H](C(=O)N[C@@H](CCC(=O)O)C(=O)N[C@@H](CCC(=O)O)C(=O)N[C@@H](CO)C(=O)N[C@@H](CCC(N)=O)C(=O)N[C@@H](CC(N)=O)C(=O)N[C@@H](CCC(N)=O)C(=O)N[C@@H](CCC(N)=O)C(=O)N[C@@H](CCC(=O)O)C(=O)N[C@@H](CCCCN)C(=O)N[C@@H](CC(N)=O)C(=O)N[C@@H](CCC(=O)O)C(=O)N[C@@H](CCC(N)=O)C(=O)N[C@@H](CCC(=O)O)C(=O)N[C@@H](CC(C)C)C(=O)N[C@@H](CC(C)C)C(=O)O)[C@@H](C)CC)[C@@H](C)CC)[C@@H](C)O)[C@@H](C)CC)CS2)NC(=O)C2N[C@H](C(=O)N[C@@H](Cc3c[nH]c4ccccc34)C(=O)N[C@@H](CCSC)C(=O)N[C@@H](CCC(=O)O)C(=O)N[C@@H](Cc3c[nH]c4ccccc34)C(=O)N[C@@H](CC(=O)O)C(=O)N[C@@H](CCCNC(=N)N)C(=O)N[C@@H](CCC(=O)O)C(=O)N[C@H](C(=O)N[C@@H](CC(N)=O)C(=O)N[C@@H](CC(N)=O)C(=O)N[C@@H](Cc3ccc(O)cc3)C(=O)N[C@H](C(=O)N[C@@H](CO)C(=O)N[C@@H](CC(C)C)C(=O)N[C@H](C(=O)N[C@@H](Cc3c[nH]cn3)C(=O)N[C@@H](CO)C(=O)N[C@@H](CC(C)C)C(=O)N[C@H](C(=O)N[C@@H](CCC(=O)O)C(=O)N[C@@H](CCC(=O)O)C(=O)N[C@@H](CO)C(=O)N[C@@H](CCC(N)=O)C(=O)N[C@@H](CC(N)=O)C(=O)N[C@@H](CCC(N)=O)C(=O)N[C@@H](CCC(N)=O)C(=O)N[C@@H](CCC(=O)O)C(=O)N[C@@H](CCCCN)C(=O)N[C@@H](CC(N)=O)C(=O)N[C@@H](CCC(=O)O)C(=O)N[C@@H](CCC(N)=O)C(=O)N[C@@H](CCC(=O)O)C(=O)N[C@@H](CC(C)C)C(=O)N[C@@H](CC(C)C)C(=O)O)[C@@H](C)CC)[C@@H](C)CC)[C@@H](C)O)[C@@H](C)CC)CS2)C(N)=O)N1)[C@@H](C)CC)[C@@H](C)O)[C@@H](C)CC)C(=O)N[C@@H](CCC(=O)O)C(=O)N[C@@H](CCC(=O)O)C(=O)N[C@@H](CO)C(=O)N[C@@H](CCC(N)=O)C(=O)N[C@@H](CC(N)=O)C(=O)N[C@@H](CCC(N)=O)C(=O)N[C@@H](CCC(N)=O)C(=O)N[C@@H](CCC(=O)O)C(=O)N[C@@H](CCCCN)C(=O)N[C@@H](CC(N)=O)C(=O)N[C@@H](CCC(=O)O)C(=O)N[C@@H](CCC(N)=O)C(=O)N[C@@H](CCC(=O)O)C(=O)N[C@@H](CC(C)C)C(=O)N[C@@H](CC(C)C)C(=O)O (stereo partly drawn) [Compound 3α3-C34]
HIV-1 NL4-3
  IC50: 0.73 nM
HIV-1 89.6
  IC50: 10.2 nM
HIV-1 pNLHxB
  IC50: 0.76 nM
HIV-1 92MW965.26
  IC50: 0.16 nM
HIV-1 92UG024.2
  IC50: 0.6 nM
HIV-1 92HT599.24
  IC50: 0.25 nM
T20-resistant virus
  IC50: 0.47 nM
NL4-3 (MT-4)
  IC50: 1.59 nM
T-20 Resistant Virus
  IC50: 0.34 nM
  Ratio: 0.21
